Assay results reported in patent US7223795B2, “Modified peptide derivatives and methods of use thereof” (Cyclacel Limited, priority 2000, dated 2007).
Like-named read-outs stand apart in the source and are kept apart here.

How the values were obtained:
Cyclophilin A = Cyclophilin A (Homo sapiens, UniProt P62937); assay: Fluorescence assay: interaction with Cyclophilin A (dissociation constant); assay type: binding; conditions: 20° C., read-out: Kd determined by fluorescence assay
Description: In each case, the binding constant was measured by means of a fluorescence assay, for example as disclosed by Husi, H. and Zurini, M. G. M. [Comparative binding studies of cyclophilins to cyclosporin-A and derivatives by fluorescence measurements, Analytical Biochemistry, 1994, 222, 251–255].
Fluorescence Assay: Interaction with Cyclophilin A
The dissociation constant (Kd) for a number of ligands has been was obtained by fluorescence measurements. Cyclophilin A has only one tryptophan, located about 8 Å from the centre of the active site making a hydrogen bond to the inhibitor cyclosporin when bound. After each addition of ligand, the portion of the protein bound is proportional to the fractional fluorescence change. Measurements were carried out using a Perkin Elmer LS50B fluorescence spectrophotometer. The experiments took place at 20° C. Constant temperature was maintained within the cuvette by a temperature control. The protein solution was equilibrated until the signal was stable. A 1.4 ml fluorescence cuvette was used (Hellma 6140F). The excitation wavelength was 280 nm and the emission wavelength was varied from 330 to 345 nm according to protein and ligand. Emission and excitation slits varied from 2.5 to 10 nm, determined by experimental parameters.
At this point the concentration of the bound ligand equals the free protein. For each ligand concentration one fluorescence value was measured, and at the same concentrations a reference emission value was taken. The difference between the two values was calculated and a new corrected value was used to determine the Kd graphically.
Cyp-A solutions of […] in 50 mMTris, 100 mM NaCl, pH=7.4 were used. Protein concentration varied according to the ligand under test.

Cyp-D Wild-type = Cyp-D Wild-type (Homo sapiens, UniProt P30405); assay: Fluorescence titration: interaction with Cyclophilin D; assay type: binding
Sequence of Cyp-D Wild-type (P30405 30-207): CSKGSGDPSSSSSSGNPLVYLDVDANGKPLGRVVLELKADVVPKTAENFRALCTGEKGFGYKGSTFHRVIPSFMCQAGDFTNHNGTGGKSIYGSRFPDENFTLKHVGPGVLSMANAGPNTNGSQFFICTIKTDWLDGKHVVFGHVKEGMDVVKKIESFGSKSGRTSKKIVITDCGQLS
Description: Fluorescence Assay: Interaction with Cyclophilin D
Further fluorescence titration studies were undertaken to investigate the interaction of selected compounds of the invention with cyclophilin D. The assay was carried out in accordance with the method described in Maurice R. Eftink and Camillo A. Ghiron, [Fluorescence Quenching Studies with Proteins, Analytical Biochemistry 114, 199–227 (1981)].

cyclophilin D = cyclophilin D (Homo sapiens, UniProt P30405); assay: Rotamase activity (method of Kofron et al); assay type: biochemical
Sequence of cyclophilin D (P30405 30-207): as above
Description: PPIase activity is assessed with the α-chymotrypsin-coupled enzymatic assay [Determination of kinetic constants for peptidyl cis-trans isomerase by an improved spectrophotometric assay (1 991); Kofron J L, Kuzmic P, Kishore V, Colon-Bonilla E and Rich D., Biochemistry 30, 6127–6134]. α-Chymotrypsin selectively hydrolyses the C-terminal p-nitroanilide bond of the substrate in the trans X-Pro conformer only. This hydrolysis releases a chromophore 4-nitroaniline, the accumulation of which is recorded by measuring the absorbance at 400 nm as a function of time. […] Substrate (stock solution of 100 mM) was dissolved in LiCl/TFE. The experiment took place at 4° C. Constant temperature was maintained within the cuvette by a Peltier (PTP-1) temperature control unit. A mini magnetic stirring system (telemoduel from Variomag)) was used for mixing the solution in the cuvette after the addition of the substrate. A Perkin Elmer UV/VIS Lambda 20 spectrophotometer was used. […]

cyclophilin = cyclophilin (Homo sapiens, UniProt P62937); assay: Binding studies, binding constant to cyclophilin
Sequence of cyclophilin (P62937 whole entry): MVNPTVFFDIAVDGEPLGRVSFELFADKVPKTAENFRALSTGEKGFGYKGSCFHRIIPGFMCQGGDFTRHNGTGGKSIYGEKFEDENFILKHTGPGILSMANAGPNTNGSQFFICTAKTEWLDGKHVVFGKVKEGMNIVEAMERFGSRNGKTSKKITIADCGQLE

Cyp-A = Cyp-A (Homo sapiens, UniProt P62937); assay: PPIase activity, α-chymotrypsin-coupled enzymatic assay; assay type: biochemical; conditions: 4° C., read-out: Kd determined by PPIase assay
Sequence of Cyp-A (P62937 whole entry): as above
Description: PPIase activity is assessed with the α-chymotrypsin-coupled enzymatic assay [Determination of kinetic constants for peptidyl cis-trans isomerase by an improved spectrophotometric assay (1 991); Kofron J L, Kuzmic P, Kishore V, Colon-Bonilla E and Rich D., Biochemistry 30, 6127–6134]. α-Chymotrypsin selectively hydrolyses the C-terminal p-nitroanilide bond of the substrate in the trans X-Pro conformer only. This hydrolysis releases a chromophore 4-nitroaniline, the accumulation of which is recorded by measuring the absorbance at 400 nm as a function of time. […] Substrate (stock solution of 100 mM) was dissolved in LiCl/TFE. The experiment took place at 4° C. Constant temperature was maintained within the cuvette by a Peltier (PTP-1) temperature control unit. A mini magnetic stirring system (telemoduel from Variomag)) was used for mixing the solution in the cuvette after the addition of the substrate. A Perkin Elmer UV/VIS Lambda 20 spectrophotometer was used.
The following materials were used: • Substrate: […] (Bachem AG) (N-succinyl-Ala-Ala-Pro-Phe-pnitroanilide) • Proteins: Cyp-A solution was freshly prepared before the experiment from frozen stock solution, at the appropriate concentration by dilution in buffer 50 mM Hepes, 100 mM NaCl pH=8.0. α-chymotrypsin (Sigma)
In a typical experiment 90 μl of 2.5–30 nM cyclophilin was made up to 2520 μl with buffer A in a 3 ml glass cuvette. The cuvette then was preincubated for 30 min on ice. Immediately before the assay, 300 μl of chymotrypsin solution (50 mg/ml in 10 mM HCl) was added, followed by 90 μl of a 3.7 mM stock solution of Suc-Ala-Ala-Pro-PNA in LiCl (470 mM)/TFE. The reaction progress was monitored by the absorbance change at 400 nm that accompanies the hydrolysis of the amide bond and the release of 4-nitroaniline product.

Sequence of Cyclophilin A (P62937 whole entry): as above

Compound | Kd (Cyclophilin A) [µM] | Kd (Cyp-D Wild-type) [µM] | Rotamase activity % Control (cyclophilin D; 50 μM) [% Control] | Rotamase activity % Control (cyclophilin D; 100 μM) [% Control] | Rotamase activity % Control (cyclophilin D; 200 μM) [% Control] | Kd (cyclophilin; read-out: binding constant (Kd) to cyclophilin, by way of comparison) [µM] | Kd (Cyp-A) [µM] | Kd (cyclophilin) [µM]
COC(=O)CC1C(=O)CC(=O)CC1(C)C (stereo not drawn) [EM 4/35/1/1] | 45 |  |  |  |  |  |  | 
COC(=O)[C@@H](NC1=CC(=O)CC(C)(C)C1)C(C)C [EM 3/22/1] | > 25000 | 103 | 110 | 102 | 63 |  |  | 
CC1(C)CC(=O)CC(=O)C1 [dimedone, reference compound] |  |  |  |  |  | 22000 |  | 
CC1(C)CC(=O)CC(=O)C1Cc1ccccc1 (stereo not drawn) [EM 5/11] |  | 170 | 84 | 99 | 71 |  |  | 
COC(=O)N[C@H](C(=O)OC1=CC(=O)CC(C)(C)C1)C(C)C [EM 4/18/1] | 70 |  |  |  |  |  |  | 
CC(C)[C@H](NC(=O)OC(C)(C)C)C(=O)OC1=CC(=O)CC(C)(C)C1 [EM 3/29/1/1] |  | 362 | 107 | 77.5 | 50 |  |  | 
CC(C)COC(=O)OC1=CC(=O)CC(C)(C)C1 [EM 3/48/2/1] | 130 |  |  |  |  |  |  | 
CC1(C)CC(=O)CC(=O)C1C/C=C/c1ccccc1 (stereo not drawn) [EM 5/12/3] | 85 |  |  |  |  |  |  | 
CC1(C)CC(=O)C=C(OC(=O)[C@H](Cc2ccccc2)NC(=O)OCc2ccccc2)C1 [EM 3/26/1/2] | > 25000 | 154 | 83 | 72.5 | 33 |  |  | 
CC1C(=O)CC(=O)CC1(C)C (racemic) [EM 4/33/1] |  |  |  |  |  |  | 134 | 
CC1(C)CC(=O)C=C(N)C1 [EM 4/12/2] |  | 107 | 104 | 106.5 | 98 |  |  | 

Continued, values first:

Kd (Cyclophilin A) [µM] | Kd (Cyp-D Wild-type) [µM] | Rotamase activity % Control (cyclophilin D; 50 μM) [% Control] | Rotamase activity % Control (cyclophilin D; 100 μM) [% Control] | Rotamase activity % Control (cyclophilin D; 200 μM) [% Control] | Kd (cyclophilin; read-out: binding constant (Kd) to cyclophilin, by way of comparison) [µM] | Kd (Cyp-A) [µM] | Kd (cyclophilin) [µM] | Compound
68 |  |  |  |  |  |  |  | CC(C)[C@H](NC(=O)OCc1ccccc1)C(=O)OC1=CC(=O)C(C)(C)C(C)(C)C1 [EM 4/21/1]
> 25000 | 110 | 96 | 100 | 59 |  |  |  | COC(=O)[C@H](Cc1ccccc1)NC(=C1C(=O)CC(C)(C)CC1=O)C(NC(=O)OCc1ccccc1)C(C)C (stereo partly drawn) [EM 2/40, N-[1-(4,4-dimethyl-2,6-dioxocyclohexylidene)-2-benzyloxycarbonylamino-3-methylbutyl]phenylalanine methyl ester]
> 25000 | 203 | 109 | 102.5 | 61 |  |  |  | CC(C)C(NC(=O)OCc1ccccc1)C(O)=C1C(=O)CC(C)(C)CC1=O (stereo not drawn) [EM 3/11/1, 1-(4,4-dimethyl-2,6-dioxocyclohexylidene)-2-benzyloxycarbonylamino-3-methylbutanol]
 | 815 | 78 | 84.5 | 60 |  | 20 |  | CC(C)[C@H](NC(=O)OCc1ccccc1)C(=O)OC1=CC(=O)C(C)C(C)(C)C1 (stereo partly drawn) [EM 4/10/1]
 |  | 111 | 96 | 60 |  |  |  | COC(=O)[C@@H](NC(=O)OCc1ccccc1)C(C)C [EM 3/27]
 | 116 | 79 | 78 | 52 |  |  |  | CC(C)C[C@H](NC(=O)OCc1ccccc1)C(=O)OC1=CC(=O)CC(C)(C)C1 [EM 3/26/2/5, 3-(N-benzyloxycarbonyl-L-leucinyloxy)-5,5-dimethyl-2-cyclohexen-1-one]
 | 347 | 81 | 80 | 33 |  | 23 | ~1 | CC(C)[C@H](NC(=O)OCc1ccccc1)C(=O)OC1=CC(=O)CC(C)(C)C1 [EM 2/34, 3-(N-benzyloxycarbonyl-L-valinyloxy)-5,5-dimethyl-2-cyclohexen-1-one]
